Data: patent US20230011869A1 (Hoffmann-La Roche Inc., priority 2018, published 2023)
Structures can show the parent of a compound that is named as a salt.

The compounds below were run on Acinetobacter baumannii ATCC17978 (assay: Antimicrobial susceptibility testing: 90% growth inhibitory concentration (IC90) determination, Iso-Sensitest broth). Conditions: 90% growth inhibitory concentration, Acinetobacter baumannii ATCC17978, Iso-Sensitest broth, OD 600 nm over 16 h; read-out: ATCC17978 IC90.
Assay type: cell-based
Experimental: Antimicrobial Susceptibility Testing:
90% Growth Inhibitory Concentration (IC90) Determination
The in vitro antimicrobial activity of the compounds was determined according to the following procedure:
The assay used a 10-points Iso-Sensitest broth medium to measure quantitatively the in vitro activity of the compounds against Acinetobacter baumannii ATCC17978 and Acinetobacter baumannii ATCC17961.
Microtiter plates were incubated at 35±2° C.
Bacterial cell growth was determined with the measurement of optical density at λ=600 nm each 20 minutes over a time course of 16 h. Growth inhibition was calculated during the logarithmic growth of the bacterial cells with determination of the concentration inhibiting 50% (IC50) and 90% (IC90) of the growth.
With “1-[4-[[3-[4-(cyanomethoxy)-2,3-difluoro-phenyl]imidazo[1,2-a]pyrazin-8-yl]amino]-2-methyl-benzoyl]-N-methylsulfonyl-piperidine-4-carboxamide trifluoroacetate [Example 100]” the IC90 was 1600 nM. `CO[C@@H]1CNC[C@H]1NC(=O)N1CCN(C(=O)c2ccc(Nc3nccn4c(-c5ccc(OC(F)F)cc5)cnc34)cc2C)CC1` (racemic) [Example 171, 4-[4-[[3-[4-(difluoromethoxy)phenyl]imidazo[1,2-a]pyrazin-8-yl]amino]-2-methyl-benzoyl]-N-[rac-(3R,4R)-4-methoxypyrrolidin-3-yl]piperazine-1-carboxamide hydrochloride] gave an IC90 of 190 nM. Work on `COc1ccc(-c2cnc3c(Nc4ccc(C(=O)N5CCN(C(=O)[C@H]6CCNC[C@H]6O)CC5)c(C)c4)nccn23)c(F)c1F` (racemic) [Example 195, [4-[[3-(2,3-difluoro-4-methoxy-phenyl)imidazo[1,2-a]pyrazin-8-yl]amino]-2-methyl-phenyl]-[4-[rac-(3S,4S)-3-hydroxypiperidine-4-carbonyl]piperazin-1-yl]methanone] yielded an IC90 of 290 nM. For `CCc1cc(Nc2nccn3c(-c4ccc(OCC#N)c(F)c4F)cnc23)ccc1C(=O)N1CCN(C(=O)[C@H]2CCNC[C@H]2O)CC1` (racemic) [Example 199, 2-[4-[8-[3-ethyl-4-[4-[rac-(3S,4S)-3-hydroxypiperidine-4-carbonyl]piperazine-1-carbonyl]anilino]imidazo[1,2-a]pyrazin-3-yl]-2,3-difluoro-phenoxy]acetonitrile formate], the IC90 was 180 nM. Work on `Cc1cc(Nc2nccn3c(-c4ccc(OC(F)F)cc4)cnc23)ccc1C(=O)N1CC[C@@H](C(=O)N2CCNCC2)[C@H](O)C1` (racemic) [Example 438, [4-[[3-[4-(difluoromethoxy)phenyl]imi-dazo[1,2-a]pyrazin-8-yl]amino]-2-methylphenyl]-[rac-(3R,4S)-3-hydroxy-4-(piperazine-1-carbonyl)piperidin-1-yl]methanone; 2,2,2-trifluoroacetic acid] yielded an IC90 of 830 nM. Compound `COc1ccc(-c2cnc3c(Nc4ccc(C(=O)N5CC[C@@H](C(=O)N6CCNCC6)[C@H](O)C5)c(C)c4)nccn23)cc1F` (racemic) [Example 440, [4-[[3-(3-fluoro-4-methoxyphenyl)imidazo[1,2-a]pyrazin-8-yl]amino]-2-methylphenyl]-[rac-(3R,4S)-3-hydroxy-4-(piperazine-1-carbonyl)piperidin-1-yl]methanone] has an IC90 of 950 nM. `CNCCNC(=O)[C@@H]1CCN(C(=O)c2ccc(Nc3nccn4c(-c5ccc(OC)c(F)c5)cnc34)cc2C)C[C@H]1O` (racemic) [Example 449, rac-(3R,4S)-1-[4-[[3-(3-fluoro-4-methoxyphenyl)imidazo[1,2-a]pyrazin-8-yl]amino]-2-methylbenozyl]-3-hydroxy-N-[2-(methylamino)ethyl]piperidin-4-carboxamide; 2,2,2-trifluoroacetic acid] was tested, and the IC90 was 2200 nM. Work on `Cc1cc(Nc2nccn3c(-c4ccc(OCC#N)c(F)c4F)cnc23)ccc1C(=O)N1CCN(C(=O)[C@@H]2CCNC[C@H]2O)CC1` (racemic) [Example 472, 2-[2,3-difluoro-4-[8-[3-methyl-4-[4-[rac-(3R,4S)-3-hydroxypiperidine-4-carbonyl]piperazine-1-carbonyl]anilino]imidazo[1,2-a]pyrazin-3-yl]phenoxy]acetonitrile; for-mic acid] yielded an IC90 of 230 nM. In the case of `Cc1cc(Nc2nccn3c(-c4ccc(OC(F)F)cc4)cnc23)ccc1C(=O)N1CC[C@@H](C(=O)N2CCNCC2)[C@@H](O)C1` (racemic) [Example 530, [4-[[3-[4-(difluoromethoxy)phenyl]imi-dazo[1,2-a]pyrazin-8-yl]amino]-2-methylphenyl]-[rac-(3R,4R)-3-hydroxy-4-(piperazine-1-carbonyl)piperidin-1-yl]methanone; 2,2,2-trifluoroacetic acid], the IC90 is reported as 630 nM. `COc1ccc(-c2cnc3c(Nc4ccc(C(=O)N5CCN(C(=O)C(CC(=O)O)NC(=O)[C@@H](N)CCCCN)CC5)c(C)c4)nccn23)c(F)c1F` (mixture of isomers) [Example 534, 4-[4-[4-[[3-(2,3-difluoro-4-methoxyphenyl)imidazo[1,2-a]pyrazin-8-yl]amino]-2-methylbenzoyl]piperazin-1-yl]-4-oxo-3-[[rac-(2R)-2,6-diaminohexanoyl]amino]bu-tanoic acid; hydrochloride] was tested, and the IC90 was 2300 nM. Compound `COc1ccc(-c2cnc3c(Nc4ccc(C(=O)N5CCN(C(=O)C(CCC(=O)O)NC(=O)[C@@H](N)CCCCN)CC5)c(C)c4)nccn23)c(F)c1F` (mixture of isomers) [Example 536, 5-[4-[4-[[3-(2,3-difluoro-4-methoxyphenyl)imidazo[1,2-a]pyrazin-8-yl]amino]-2-methylbenzoyl]piperazin-1-yl]-5-oxo-4-[[rac-(2R)-2,6-diaminohexanoyl]amino]pen-tanoic acid; hydrochloride] has an IC90 of 4100 nM. With `CCc1cc(Nc2nccn3c(-c4ccc(OC)c(F)c4F)cnc23)ccc1C(=O)N1CCN(C(=O)[C@@H]2CCNC[C@@H]2O)CC1` (racemic) [Example 547, [4-[[3-(2,3-difluoro-4-methoxyphenyl)imidazo[1,2-a]pyrazin-8-yl]amino]-2-ethylphenyl]-[4-[rac-(3R,4R)-3-hydroxypiperidine-4-carbonyl]piperazin-1-yl]methanone; hydrochloride] the IC90 was 340 nM. `Cc1cc(Nc2nccn3c(-c4ccc(OCC#N)c(F)c4F)cnc23)ccc1C(=O)N1CCN(C(=O)[C@@H]2CCNC[C@@H]2O)CC1` (relative stereo) [Example 196, 2-[2,3-difluoro-4-[8-[3-methyl-4-[4-[rac-(3R,4R)-3-hydroxypiperidine-4-carbonyl]piperazine-1-carbonyl]anilino]imidazo [1,2-a]pyrazin-3-yl]phenoxy] acetonitrile formate] showed an IC90 of 270 nM. With `COc1ccc(-c2cnc3c(Nc4ccc(C(=O)N5CCN(C(=O)[C@@H]6CCNC[C@@H]6O)CC5)c(C)c4)nccn23)c(Cl)c1F` (relative stereo) [Example 218, [4-[[3-(2-chloro-3-fluoro-4-methoxy-phenyl)imidazo[1,2-a]pyrazin-8-yl]amino]-2-methyl-phenyl]-[4-[(3R,4R)-3-hydroxypiperidine-4-carbonyl]piperazin-1-yl]methanone] the IC90 was 220 nM. `Cc1cc(Nc2nccn3c(-c4ccc(OC(F)F)cc4)cnc23)ccc1C(=O)N1CCC(C(=O)O)CC1` [Example 1, 1-(4-((3-(4-(difluoromethoxy)phenyl)imidazo[1,2-a]pyrazin-8-yl)amino)-2-methylbenzoyl)piperidine-4-carboxylic acid] showed an IC90 of 1700 nM. Compound `COc1ccc(-c2cnc3c(Nc4ccc(C(=O)N5CCC(C(=O)O)CC5)c(C)c4)nccn23)cc1F` [Example 2, 1-(4-((3-(3-fluoro-4-methoxyphenyl)imidazo[1,2-a]pyrazin-8-yl)amino)-2-methylbenzoyl)piperidine-4-carboxylic acid] has an IC90 of 1700 nM. Compound `Cc1cc(Nc2nccn3c(-c4ccc(OC(F)F)cc4)cnc23)ccc1C(=O)N1CCC(CCN)CC1` [Example 3, (4-(2-Aminoethyl)piperidin-1-yl)(4-((3-(4-(difluoromethoxy)phenyl)imidazo[1,2-a]pyrazin-8-yl)amino)-2-methylphenyl)methanone hydrochloride] has an IC90 of 110 nM.

Same assay, conditions: Acinetobacter baumannii, ATCC17978, 16 h, read-out: ATCC17978 IC90, 90% growth inhibitory concentration, Acinetobacter baumannii ATCC17978, Iso-Sensitest broth, OD 600 nm over 16 h
For `Cc1cc(Nc2nccn3c(-c4ccc(OC(F)F)cc4)cnc23)ccc1C(=O)N1CCC(C(=O)N[C@@H]2C(O)O[C@H](CO)[C@@H](O)[C@@H]2O)CC1` (mixture of isomers) [Example 351, 1-[4-[[3-[4-(difluoromethoxy)phenyl]imi-dazo[1,2-a]pyrazin-8-yl]amino]-2-methylbenzoyl]-N-[rac-(3R,4S,5R,6S)-2,4,5-trihydroxy-6-(hydroxymethyl)oxan-3-yl]piperidine-4-carboxamide], the IC90 was 720 nM. For `Cc1cc(Nc2nccn3c(-c4ccc(OC(F)F)cc4)cnc23)ccc1C(=O)N1CCC(C(=O)N2C[C@H](O)[C@@H](O)C2)CC1` (racemic) [Example 415, [4-[[3-[4-(difluoromthoxy)phenyl]imi-dazo[1,2-a]pyrazin-8-yl]amino]-2-methylphenyl]-[4-[rac-(3R,4R)-3,4-dihydroxypyrrolidine-1-carbonyl]piperidin-1-yl]methanone], the IC90 was 780 nM. Work on `CNCCNC(=O)[C@@H]1CCN(C(=O)c2ccc(Nc3nccn4c(-c5ccc(OC)c(F)c5)cnc34)cc2C)C[C@@H]1O` (racemic) [Example 439, rac-(3R,4R)-1-[4-[[3-(3-fluoro-4-methoxyphenyl)imidazo[1,2-a]pyrazin-8-yl]amino]-2-methylbenzoyl]-3-hydroxy-N-[2-(methyl-amino)ethyl]piperidine-4-carboxamide; 2,2,2-trifluoroacetic acid] yielded an IC90 of 910 nM. Compound `COc1ccc(-c2cnc3c(Nc4ccc(C(=O)N5CCN(C(=O)[C@H]6CCNC[C@@H]6O)CC5)c(C)c4)nccn23)c(F)c1F` (racemic) [Example 489, [4-[[3-(2,3-difluoro-4-methoxyphenyl)imidazo[1,2-a]pyrazin-8-yl]amino]-2-methylphenyl]-[4-[rac-(3R,4S)-3-hydroxypiperidine-4-carbonyl]piperazin-1-yl]methanone; hydrochloride] has an IC90 of 270 nM. In the case of `CCc1cc(Nc2nccn3c(-c4ccc(OCC#N)c(F)c4F)cnc23)ccc1C(=O)N1CCN(C(=O)[C@H]2CCNC[C@@H]2O)CC1` (racemic) [Example 498, 2-[4-[8-[3-ethyl-4-[4-[rac-(3R,4S)-3-hydroxypiperidine-4-carbonyl]piperazine-1-carbonyl]anilino]imidazo[1,2-a]pyrazin-3-yl]-2,3-difluorophenoxy]acetonitrile; formic acid], the IC90 is reported as 330 nM.
